Numbered stars: 1 amine (or outer) side, 2 acyl side, 3 side chain; on linkers, the order of the positions; unused ones are H or OH. Bridge positions count the residues as written; N and C are the ends. Square brackets hold non-standard residues; d marks the D form. Peptide text beside a SMILES is read from it. I, II: the chains in the order shown. Actinocin(9to1) = Cc1c2oc3c(C)ccc(C(=O)[*:1])c3nc-2c(C(=O)[*:2])c(N)c1=O; NMeV = CN[C@H](C(=O)O)C(C)C; Sar = CNCC(=O)O
Molecular target: SpCas9 (Streptococcus pyogenes serotype M1, UniProt Q99ZW2)
Test: eGFP disruption assay, SpCas9, U2OS.eGFP.PEST cells
Format: cell-based
Conditions: for Normalized Z rep1 / Z score Rep1: replicate 1; for SpCas9 eGFP disruption Rep1: replicate 1, raw readout; for Normalized Z rep2 / Z socre Rep2: replicate 2; for SpCas9 eGFP disruption Rep2: replicate 2, raw readout
Text: In some embodiments, the secondary assay may be an EGFP disruption assay. In such assay, a quantitative human cell-based reporter assay that enables rapid quantitation of targeted nuclease activities is used to characterize off-target cleavage of Cas9-based RNA guided endonucleases. In this assay, the activities of nucleases targeted to a single integrated EGFP reporter gene can be quantified by assessing loss of fluorescence signal in human U2OS.EGFP cells caused by inactivating frameshift insertion/deletion (indel) mutations introduced by error prone non-homologous end-joining (NHEJ) repair of nuclease-induced double-stranded breaks (DSBs).
In one protocol, U2OS.EGFP cells harboring a single integrated copy of an EGFP-PEST fusion gene are cultured (see e.g., Reyon et al., Nat Biotech 30, 460-465 (2012), which is herein incorporated by reference in its entirety). For transfections, 200,000 cells are Nucleofected with gRNA expression plasmid and pJDS246 together with 30 ng of a Td-tomato-encoding plasmid using the SE Cell Line 4D-Nucleofector™ X Kit (Lonza) according to the manufacturer's protocol. Cells are analyzed 2 days post-transfection using a BD LSRII flow cytometer. Transfections for optimizing gRNA/Cas9 plasmid concentration are performed in triplicate and all other transfections are performed in duplicate. PCR amplification is used for sequence verification of endogenous human genomic sites. PCR reactions are performed using Phusion Hot Start II high-fidelity DNA polymerase (NEB). Loci are amplified using touchdown PCR (98° C., 10 s; 72-62° C., −1° C./cycle, 15s; 72° C., 30 s] 10 cycles, [98° C., 10s; 62° C., 15s; 72° C., 30 s] 25 cycles). Alternatively, PCR for other targets is performed with 35 cycles at a constant annealing temperature of 68° C. or 72° C., and 3% DMSO or IM betaine, if necessary. PCR products are analyzed on a QIAXCEL capillary electrophoresis system to verify both size and purity. Validated products are treated with ExoSap-IT (Affymetrix) and sequenced by the Sanger method (MGH DNA Sequencing Core) to verify each target site.
Primary and secondary screening. The primary screen assayed a selection of unique chemical scaffolds derived from commercially available compounds and known bioactive molecular libraries (Table 7). Auto-fluorescent compounds were removed by a counter screen. Overall, the CAA was used to assay 122,409 small molecules with over 2,500 unique chemical scaffolds (FIG. 64F, Table 7). Of these compounds, 547 were selected as hits (Z score >3 in both replicates) for testing in orthogonal cell-based secondary assays. Hits were tested in duplicate in an eGFP disruption assay, wherein U2OS.eGFP.PEST cells^33 transfected with SpCas9 plasmid and eGFP-targeting gRNA plasmid were incubated with 20 μM of the compounds. In this assay, any compound that inhibited SpCas9 would rescue the loss of eGFP fluorescence. Here, toxic and auto-fluorescent compounds with a high GFP signal in cells were removed as false positives. […] Next, Applicants tested the 15 compounds in a luminescence-based gain-of-signal HiBiT knock-in assay, which involves SpCas9-mediated homology-directed tagging of GAPDH with a short peptide that luminesces upon complementation with a subunit derived from nanoluciferase.^34 Complementarily, the eGFP-disruption assay is fluorescence-based and involves error-prone DNA repair. As a counter-screen to remove false positives caused by cell death (viability <80%), the cell viability was measured after incubation.
For SAR studies and dose-response studies, 300,000 U2OS.eGFP.PEST cells were nucleofected with 300 ng of SpCas9 plasmid (Addgene #43861) and 30 ng of eGFP-targeting gRNA plasmid (Addgene #47511)^33 using SE Cell Line 4D-Nucleofector X Kit (Lonza) following the pulse program of DN-100. For RNP-based genome editing, 10 pmol of SpCas9 (GenScript #Z03385) and 12 pmol of gRNA were mixed and incubated for 5 min. […]

Chain of SpCas9 (Q99ZW2 whole entry): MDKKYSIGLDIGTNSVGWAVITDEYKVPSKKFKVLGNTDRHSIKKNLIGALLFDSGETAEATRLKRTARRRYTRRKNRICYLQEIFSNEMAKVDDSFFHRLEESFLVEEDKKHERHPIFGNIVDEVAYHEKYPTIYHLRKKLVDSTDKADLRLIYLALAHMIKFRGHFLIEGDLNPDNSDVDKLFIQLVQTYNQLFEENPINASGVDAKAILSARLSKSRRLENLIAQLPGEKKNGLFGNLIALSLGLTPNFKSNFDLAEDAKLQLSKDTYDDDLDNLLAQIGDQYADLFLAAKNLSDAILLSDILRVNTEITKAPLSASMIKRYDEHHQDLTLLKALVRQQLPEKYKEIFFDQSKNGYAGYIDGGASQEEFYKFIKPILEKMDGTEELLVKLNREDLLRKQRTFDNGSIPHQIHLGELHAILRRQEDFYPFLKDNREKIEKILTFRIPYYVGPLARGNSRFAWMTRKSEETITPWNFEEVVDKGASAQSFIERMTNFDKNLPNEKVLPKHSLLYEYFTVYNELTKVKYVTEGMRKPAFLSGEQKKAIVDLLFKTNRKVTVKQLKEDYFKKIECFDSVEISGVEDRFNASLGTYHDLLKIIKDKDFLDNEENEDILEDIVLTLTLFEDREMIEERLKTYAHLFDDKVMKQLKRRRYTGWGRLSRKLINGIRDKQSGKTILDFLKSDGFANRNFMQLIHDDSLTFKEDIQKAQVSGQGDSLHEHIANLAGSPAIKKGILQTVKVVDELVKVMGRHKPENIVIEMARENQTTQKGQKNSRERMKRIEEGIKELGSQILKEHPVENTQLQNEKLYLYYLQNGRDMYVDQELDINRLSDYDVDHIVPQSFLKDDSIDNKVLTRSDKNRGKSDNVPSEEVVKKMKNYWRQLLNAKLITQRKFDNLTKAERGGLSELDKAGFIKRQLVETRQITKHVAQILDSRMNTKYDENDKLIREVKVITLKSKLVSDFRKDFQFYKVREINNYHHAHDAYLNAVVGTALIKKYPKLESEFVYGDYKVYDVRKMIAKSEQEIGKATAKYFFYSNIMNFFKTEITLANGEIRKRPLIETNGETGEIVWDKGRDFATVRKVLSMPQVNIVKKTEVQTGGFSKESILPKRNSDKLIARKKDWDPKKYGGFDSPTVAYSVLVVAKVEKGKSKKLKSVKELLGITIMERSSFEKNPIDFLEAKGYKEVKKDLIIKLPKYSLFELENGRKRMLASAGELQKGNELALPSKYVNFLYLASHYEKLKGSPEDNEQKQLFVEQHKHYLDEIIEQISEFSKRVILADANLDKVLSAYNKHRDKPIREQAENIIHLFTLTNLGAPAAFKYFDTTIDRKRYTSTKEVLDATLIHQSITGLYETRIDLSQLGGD

CCCCNC(=O)CN1CCN(c2ccc(C(=O)O)cc2NC(=O)c2ccccc2Cl)CC1 [Compound F086-0029]
Normalized Z rep1: −0.30 | Z score Rep1: −2.20 | SpCas9 eGFP disruption Rep1: 59.751 | Normalized Z rep2: −0.05 | Z socre Rep2: −0.46 | SpCas9 eGFP disruption Rep2: 61.703

CCCCN(CC)C(=O)C1CCCN(c2ccc(-c3ccccc3C)nn2)C1 (stereo not drawn) [Compound F305-0129]
Normalized Z rep1: −0.32 | Z score Rep1: −2.35 | SpCas9 eGFP disruption Rep1: 59.262 | Normalized Z rep2: −0.38 | Z socre Rep2: −3.50 | SpCas9 eGFP disruption Rep2: 52.541

Cc1cc(Sc2ccccc2NC(=O)c2cccc(F)c2)n2ncnc2n1 [Compound F518-0008]
Normalized Z rep1: −0.22 | Z score Rep1: −2.00 | SpCas9 eGFP disruption Rep1: 59.029 | Normalized Z rep2: −0.20 | Z socre Rep2: −3.02 | SpCas9 eGFP disruption Rep2: 61.293

Cc1cccc(C(=O)Nc2ccccc2Sc2cc(C)nc3ncnn23)c1 [Compound F518-0014]
Normalized Z rep1: −0.36 | Z score Rep1: −3.28 | SpCas9 eGFP disruption Rep1: 55.407 | Normalized Z rep2: −0.34 | Z socre Rep2: −5.07 | SpCas9 eGFP disruption Rep2: 57.92

CCC(=O)Nc1ccccc1Sc1cc(C)nc2ncnn12 [Compound F518-0049]
Normalized Z rep1: −0.09 | Z score Rep1: −0.86 | SpCas9 eGFP disruption Rep1: 62.276 | Normalized Z rep2: −0.23 | Z socre Rep2: −3.42 | SpCas9 eGFP disruption Rep2: 60.623

O=C(O)c1cc(N2CCCC2)ccc1NC(=O)C1CCCC1 [Compound F685-1588]
Normalized Z rep1: −0.26 | Z score Rep1: −2.44 | SpCas9 eGFP disruption Rep1: 57.803 | Normalized Z rep2: −0.23 | Z socre Rep2: −3.36 | SpCas9 eGFP disruption Rep2: 60.73

COc1ccc(S(=O)(=O)CCC(=O)Nc2nc(-c3ccncc3)cs2)cc1 [Cpd4]
Normalized Z rep1: −0.26 | Z score Rep1: −3.70 | SpCas9 eGFP disruption Rep1: 48.322 | Normalized Z rep2: −0.20 | Z socre Rep2: −4.05 | SpCas9 eGFP disruption Rep2: 47.796

CC(C)(C)OC(=O)NCCOc1ccc(S(=O)(=O)CCC(=O)Nc2nc(-c3ccncc3)cs2)cc1 [Cpd6]
Normalized Z rep1: −0.10 | Z score Rep1: −1.44 | SpCas9 eGFP disruption Rep1: 54.15 | Normalized Z rep2: 0.06 | Z socre Rep2: 1.16 | SpCas9 eGFP disruption Rep2: 57.456

N#Cc1[nH]c(=O)n(Cc2ccccc2)c1N [Cpd10]
Normalized Z rep1: 0.00 | Z score Rep1: 0.06 | SpCas9 eGFP disruption Rep1: 58.004 | Normalized Z rep2: 0.14 | Z socre Rep2: 2.94 | SpCas9 eGFP disruption Rep2: 60.748

Fc1cccc(-c2nn3c(-c4ccc5ccccc5n4)nnc3s2)c1 [D727-0740]
Normalized Z rep1: −0.57 | Z score Rep1: −4.14 | SpCas9 eGFP disruption Rep1: 53.347 | Normalized Z rep2: −0.08 | Z socre Rep2: −0.74 | SpCas9 eGFP disruption Rep2: 60.86

Cc1c2oc3c(C)ccc(C(=O)N[C@@H]4C(=O)N[C@H](C(C)C)C(=O)N5CCC[C@H]5C(=O)N(C)CC(=O)N(C)[C@@H](C(C)C)C(=O)O[C@@H]4C)c3nc-2c(C(=O)N[C@@H]2C(=O)N[C@H](C(C)C)C(=O)N3CCC[C@H]3C(=O)N(C)CC(=O)N(C)[C@@H](C(C)C)C(=O)O[C@@H]2C)c(N)c1=O [SAM001246846] (I: T[dV]P[Sar][NMeV] / II: T[dV]P[Sar][NMeV]; ester I:1-I:C, II:1-II:C; linker I:N-II:N via Actinocin(9to1))
Normalized Z rep1: −2.59 | Z score Rep1: −16.90 | SpCas9 eGFP disruption Rep1: 26.655 | Normalized Z rep2: −2.71 | Z socre Rep2: −26.02 | SpCas9 eGFP disruption Rep2: 24.765

Source: patent US20240115557A1, “INHIBITORS OF RNA-GUIDED NUCLEASES AND USES THEREOF” (The Brigham and Women's Hospital, Inc., priority 2022, published 2024)
